Drawing on PubChem BioAssay AID192 (DTP/NCI, 2004), this text covers T/C for 11 molecules.

The structures appear in SMILES notation. Inconclusive results and toxic doses are left out.

The test system of the assay is BDF1 mice, B16 melanoma ip, median survival T/C. The experiment in a line: NCI In Vivo Anticancer Drug Screen. Data for tumor model B16 Melanoma (intraperitoneal) in B6D2F1 (BDF1) mice. The note with it: endpoint: median survival time, higher = longer survival. In outline:
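Values are ratios of treated (T) to vehicle-control (C) measurements of survival or tumor size in tumor-bearing mice.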

Setting [1] is: dose: 6.25 mg/kg/injection, schedule: Q01DX009 (ip), vehicle: Klucel (hydroxypropylcellulose) (HPC).
[2] abbreviates: dose: 50.0 mg/kg/injection, schedule: Q01DX009 (ip), vehicle: saline with Tween-80.
Setting [3] is: dose: 100.0 mg/kg/injection, schedule: Q01DX009 (ip), vehicle: saline with Tween-80.
Setting [4] is: dose: 100.0 mg/kg/injection, schedule: Q01DX009 (ip), vehicle: Klucel (hydroxypropylcellulose) (HPC).
[5] abbreviates: dose: 200.0 mg/kg/injection, schedule: Q01DX009 (ip), vehicle: Klucel (hydroxypropylcellulose) (HPC).
The mark [6] stands for this setting: dose: 400.0 mg/kg/injection, schedule: Q01DX009 (ip), vehicle: Klucel (hydroxypropylcellulose) (HPC).
Where [7] appears, read: dose: 25.0 mg/kg/injection, schedule: Q01DX009 (ip), vehicle: saline.

Take `CCc1c2cc3c(cc2cc2c4cc5c(cc4cc[n+]12)OCO5)OCO3` (tested in a mixture with another compound): the T/C reads like this: (dose: 1.56 mg/kg/injection, schedule: Q01DX009 (ip), vehicle: Klucel (hydroxypropylcellulose) (HPC)) 103 % of control; (dose: 3.13 mg/kg/injection, schedule: Q01DX009 (ip), vehicle: Klucel (hydroxypropylcellulose) (HPC)) 106 % of control; under setting [1], 106 % of control.

`Nc1nc([Se])c2ncn(C3CC(O)C(CO)O3)c2n1` (stereo unspecified): the T/C is 105 % of control under setting [1]; 124 % of control (dose: 12.5 mg/kg/injection, schedule: Q01DX009 (ip), vehicle: Klucel (hydroxypropylcellulose) (HPC)); 122 % of control (dose: 25.0 mg/kg/injection, schedule: Q01DX009 (ip), vehicle: Klucel (hydroxypropylcellulose) (HPC)); 111 % of control (dose: 50.0 mg/kg/injection, schedule: Q01DX009 (ip), vehicle: Klucel (hydroxypropylcellulose) (HPC)).

For `O=CC=O`, the T/C (dose: 12.5 mg/kg/injection, schedule: Q01DX009 (ip), vehicle: saline with Tween-80) was 104 % of control; the T/C (dose: 25.0 mg/kg/injection, schedule: Q01DX009 (ip), vehicle: saline with Tween-80) is 106 % of control; the T/C under setting [2] is 108 % of control; the T/C under setting [3] is 123 % of control.

Take `O=C(Cl)c1ccccc1S(=O)(=O)N(CCOc1ccccc1)c1ccccc1`: the T/C runs as follows: under setting [4], 90 % of control; under setting [5], 96 % of control; under setting [6], 87 % of control.

Regarding `CN(CCCOS(C)(=O)=O)CCCOS(C)(=O)=O`, the T/C by setting is: (dose: 6.25 mg/kg/injection, schedule: Q01DX009 (ip), vehicle: saline) 115 % of control; (dose: 10.0 mg/kg/injection, schedule: Q01DX009 (ip), vehicle: saline) 185 % of control; (dose: 20.0 mg/kg/injection, schedule: Q01DX009 (ip), vehicle: saline) 150 % of control; under setting [7], 181 % of control; (dose: 40.0 mg/kg/injection, schedule: Q01DX009 (ip), vehicle: saline) 285 % of control.

As for `CCOC(=O)c1cnc(SC)nc1Sc1ccc(Cl)cc1`, the T/C by setting is: (dose: 100.0 mg/kg/injection, schedule: Q04DX003 (ip), vehicle: Klucel (hydroxypropylcellulose) (HPC)) 100 % of control; (dose: 200.0 mg/kg/injection, schedule: Q04DX003 (ip), vehicle: Klucel (hydroxypropylcellulose) (HPC)) 99 % of control; (dose: 400.0 mg/kg/injection, schedule: Q04DX003 (ip), vehicle: Klucel (hydroxypropylcellulose) (HPC)) 89 % of control.

Regarding `NC(=O)C(CC(=O)OCc1ccccc1)NC(=O)OCc1ccccc1` (stereo unspecified), the T/C runs as follows: under setting [4], 118 % of control; under setting [5], 107 % of control; under setting [6], 113 % of control.

With `CCCC(=O)OC1C=C2N3C(=O)C4CC56C(=CC(OC(C)=O)C7OC75)N4C(=O)C3CC26C2OC12` (stereo unspecified), the T/C was 90 % of control (dose: 0.13 mg/kg/injection, schedule: Q01DX009 (ip), vehicle: Klucel (hydroxypropylcellulose) (HPC)); 101 % of control (dose: 0.25 mg/kg/injection, schedule: Q01DX009 (ip), vehicle: Klucel (hydroxypropylcellulose) (HPC)); 90 % of control (dose: 0.5 mg/kg/injection, schedule: Q01DX009 (ip), vehicle: Klucel (hydroxypropylcellulose) (HPC)).

Turning to `CC1CCC2(C(=O)O)CCC3(C)C(=CCC4C5(C)CCC(O)C(C)(C)C5CCC43C)C2C1C` (stereo unspecified), the T/C under setting [4] is 98 % of control and the T/C under setting [5] is 91 % of control.

Take `COc1ccc(Oc2cc(CC3c4cc(OC)c(OC)cc4CCN3C)c([N+](=O)[O-])cc2OC)cc1OC` (stereo unspecified): the T/C reads like this: (dose: 12.5 mg/kg/injection, schedule: Q01DX009 (ip), vehicle: saline) 100 % of control; under setting [7], 100 % of control; (dose: 50.0 mg/kg/injection, schedule: Q01DX009 (ip), vehicle: saline) 98 % of control.

As for `COC1/C=C/O[C@@]2(C)Oc3c(C)c(O)c4c(O)c(cc(O)c4c3C2=O)NC(=O)/C(C)=C\C=C\[C@H](C)C(O)[C@@H](C)[C@@H](O)[C@@H](C)[C@H](OC(C)=O)[C@@H]1C` (stereo partly specified), the T/C reads like this: under setting [2], 89 % of control; under setting [3], 100 % of control; (dose: 200.0 mg/kg/injection, schedule: Q01DX009 (ip), vehicle: saline with Tween-80) 95 % of control.
